Test results from US20020173538A1, “Method for sensitizing cancer cells to cancer therapies with a mevalonate-reducing compound” (priority 2000, published 2002).
Where two headings read alike, the source gives them in different places. Marks after values point to notes of the source that are not given here.

Assays:
[1] = MTT cell viability assay, Hep G2 cells (serum-free DMEM); settings: human, Hep G2 cells, Cell viability
From the text: (§1) Human hepatoma cell lines Hep G2 and Hep 3 were chosen as the in vitro models of hepatocytes and hepatoma, respectively.

Hep G2 cells = test: as above; settings: for IC50: Homo sapiens; for Cell viability (cell number): LOV 50 μM 48 hr
From the text: as §1

Hep 3B cells = test: MTT cell viability assay, Hep 3B cells (serum-free DMEM)
From the text: as §1

[2] = lovastatin 50 μM 48 hr, then no taxol 48 hr
[3] = LOV 10 μM 48 hr, then LOV 10 μM without MVA another 24 hr
[4] = LOV 10 μM 48 hr, then LOV 10 μM without MVA another 48 hr
[5] = LOV 10 μM 48 hr, then LOV 10 μM without MVA another 72 hr

**Q.** What does the source list for `CC[C@H](C)C(=O)O[C@H]1C[C@@H](C)C=C2C=C[C@H](C)[C@H](CC[C@@H]3C[C@@H](O)CC(=O)O3)[C@H]21` [Lovastatin, lovastatin]?
**A.** viability at 96 h, 10 μM ([1]; lovastatin 10 μM alone, 96 hr, Table 25): 50.3 ± 4.9%; viability at 72 h, 10 μM ([1]; lovastatin 10 μM, 72 hr): 78.7 ± 5.3%; viability at 72 h, 20 μM ([1]; lovastatin 20 μM, 72 hr): 75.3 ± 4.2%; viability at 48 h, 50 μM [1, 2]: 14.6 ± 1.3%; viability at 72 h, 50 μM ([1]; lovastatin 50 μM, 72 hr): 58.2 ± 4.2%; IC50 (Hep G2 cells; HepG2, 48 h, read-out: IC50 (cell viability), 48 hr, Table 3): 97.2 ± 2.1 µM; IC50 (Hep G2 cells; HepG2, 48 h, read-out: IC50 (cell viability), 48 hr, Table 4): 97.2 µM; IC50 (Hep G2 cells; HepG2, 48 h, read-out: IC50 of lovastatin (cell viability), 48 hr treatment): 97.2 ± 2.1 µM; IC50 (Hep G2 cells; HepG2, 72 h, read-out: IC50 (cell viability), 72 hr, Table 3): 63.6 ± 3.7 µM; IC50 (Hep G2 cells; HepG2, 72 h, read-out: IC50 (cell viability), 72 hr, Table 4): 62.3 µM; IC50 (Hep G2 cells; HepG2, 72 h, read-out: IC50 of lovastatin (cell viability), 72 hr treatment): 62.3 ± 3.7 µM; IC50 (Hep G2 cells; HepG2, 96 h, read-out: IC50 (cell viability), 96 hr): 13.1 µM; IC50 (Hep G2 cells; HepG2, 120 h, read-out: IC50 (cell viability), 120 hr): 6.2 µM; Cell viability (cell number) (Hep G2 cells; then LOV 50 μM without MVA another 24 hr): 10.6 ± 0.7^b 1 × 10^3 cells; Cell viability (cell number) (Hep G2 cells; then LOV 50 μM without MVA another 48 hr): 3.6 ± 1.6^b 1 × 10^3 cells; Cell viability (cell number) (Hep G2 cells; then LOV 50 μM without MVA another 72 hr): 1.7 ± 0.5^b 1 × 10^3 cells; IC50 (Hep 3B cells; Homo sapiens, Hep3B, 48 h, read-out: IC50 (cell viability), 48 hr, Table 3): 62.3 ± 7.1 µM; IC50 (Hep 3B cells; Homo sapiens, Hep3B, 48 h, read-out: IC50 (cell viability), 48 hr, Table 4): 63.6 µM; IC50 (Hep 3B cells; Homo sapiens, Hep3B, 48 h, read-out: IC50 of lovastatin (cell viability), 48 hr treatment): 63.6 ± 7.1 µM; viability at 1 µM (Hep 3B cells; Homo sapiens, Hep3B, 72 h, read-out: Cell viability, lovastatin 1 μM, 72 hr): 84.1 ± 4.5%; viability at 2 µM (Hep 3B cells; Homo sapiens, Hep3B, 72 h, read-out: Cell viability, lovastatin 2 μM, 72 hr): 71.4 ± 3.8%; viability at 5 µM (Hep 3B cells; Homo sapiens, Hep3B, 72 h, read-out: Cell viability, lovastatin 5 μM alone, 72 hr, Table 23): 60.7 ± 2.4%; viability at 5 µM (Hep 3B cells; Homo sapiens, Hep3B, 72 h, read-out: Cell viability, lovastatin 5 μM, 72 hr): 58.8 ± 1.8%; viability at 10 µM (Hep 3B cells; Homo sapiens, Hep3B, 72 h, read-out: Cell viability, lovastatin 10 μM alone, 72 hr, Table 23): 48.5 ± 2.5%; viability at 10 µM (Hep 3B cells; Homo sapiens, Hep3B, 72 h, read-out: Cell viability, lovastatin 10 μM, 72 hr): 41.4 ± 1.5%; viability at 50 µM (Hep 3B cells; Homo sapiens, Hep3B, 72 h, read-out: Cell viability, lovastatin 50 μM, 72 hr): 15.2 ± 1.8%; IC50 (Hep 3B cells; Homo sapiens, Hep3B, 72 h, read-out: IC50 (cell viability), 72 hr, Table 3): 6.8 ± 1.3 µM; IC50 (Hep 3B cells; Homo sapiens, Hep3B, 72 h, read-out: IC50 (cell viability), 72 hr, Table 4): 6.8 µM; IC50 (Hep 3B cells; Homo sapiens, Hep3B, 72 h, read-out: IC50 of lovastatin (cell viability), 72 hr treatment): 6.8 ± 1.3 µM; viability at 10 µM (Hep 3B cells; Homo sapiens, Hep3B, 96 h, read-out: Cell viability, lovastatin 10 μM alone, 96 hr, Table 10): 29.8 ± 1.2%; viability at 10 µM (Hep 3B cells; Homo sapiens, Hep3B, 96 h, read-out: Cell viability, lovastatin 10 μM alone, 96 hr, Table 21): 27.5 ± 8.2%; viability at 10 µM (Hep 3B cells; Homo sapiens, Hep3B, 96 h, read-out: Cell viability, lovastatin 10 μM alone, 96 hr, Table 25): 28.6 ± 1.7%; IC50 (Hep 3B cells; Homo sapiens, Hep3B, 96 h, read-out: IC50 (cell viability), 96 hr): 5.9 µM; IC50 (Hep 3B cells; Homo sapiens, Hep3B, 120 h, read-out: IC50 (cell viability), 120 hr): 1.3 µM; Cell viability (Hep 3B cells; LOV 1 μM, 48 hr): 90.2 ± 0.3^b % of control; Cell viability (Hep 3B cells; LOV 2 μM, 48 hr): 86.1 ± 2.0^bc % of control; Cell viability (Hep 3B cells; LOV 5 μM, 48 hr): 78.6 ± 4.7^cd % of control; Cell viability (Hep 3B cells; LOV 5 μM, 48 hr, Table 4): 78.6 ± 4.7^b % of control; Cell viability (Hep 3B cells; LOV 5 μM, 96 hr): 56.4 ± 5.1^c % of control; Cell viability (Hep 3B cells; LOV 5 μM, 120 hr): 20.3 ± 3.6^d % of control; Cell viability (Hep 3B cells; [3]): 52.6 ± 2.6^b % of control; Cell viability (cell number) (Hep 3B cells; [3]): 5.3 ± 0.1^b 1 × 10^3 cells; Cell viability (Hep 3B cells; [4]): 7.3 ± 0.5^b % of control; Cell viability (cell number) (Hep 3B cells; [4]): 1.0 ± 0.1^b 1 × 10^3 cells; Cell viability (Hep 3B cells; [5]): 3.2 ± 1.8^b % of control; Cell viability (cell number) (Hep 3B cells; [5]): 0.6 ± 0.5^b 1 × 10^3 cells; Cell viability (Hep 3B cells; LOV 10 μM, 48 hr): 66.4 ± 0.8^de % of control; Cell viability (Hep 3B cells; LOV 10 μM, 48 hr, Table 4): 66.4 ± 0.8^b % of control; Cell viability (Hep 3B cells; LOV 10 μM, 96 hr): 31.7 ± 2.7^d % of control; Cell viability (Hep 3B cells; LOV 10 μM, 120 hr): 6.9 ± 1.3^e % of control; Cell viability (Hep 3B cells; LOV 20 μM, 48 hr): 55.7 ± 6.6^ef % of control; Cell viability (Hep 3B cells; LOV 50 μM, 48 hr): 52.2 ± 1.9^f % of control; Cell viability (Hep 3B cells; lovastatin 5 μM 48 hr, then no CAPE 48 hr): 64.3 ± 5.5 % of control; Cell viability (Hep 3B cells; lovastatin 5 μM 48 hr, then no taxol 48 hr): 49.8 ± 7.8 % of control; Cell viability (Hep 3B cells; lovastatin 5 μM 72 hr, then no taxol 48 hr): 27.7 ± 2.0 % of control; Cell viability (Hep 3B cells; lovastatin 5 μM 72 hr, then no taxol 72 hr): 13.0 ± 3.0 % of control; Cell viability (Hep 3B cells; lovastatin 10 μM 48 hr, then no CAO 48 hr): 47.9 ± 6.1^de % of control; Cell viability (Hep 3B cells; lovastatin 10 μM 48 hr, then no CAPE 48 hr): 59.3 ± 4.5^d % of control; Cell viability (Hep 3B cells; lovastatin 10 μM 48 hr, then no GL-M1 48 hr): 53.6 ± 8.2^c % of control; Cell viability (Hep 3B cells; lovastatin 10 μM 48 hr, then no taxol 48 hr): 45.7 ± 3.1^d % of control; Cell viability (Hep 3B cells; lovastatin 10 μM 72 hr, then no taxol 48 hr): 20.4 ± 7.0^c % of control; Cell viability (Hep 3B cells; lovastatin 10 μM 72 hr, then no taxol 72 hr): 14.7 ± 3.6^d % of control; Cell viability (Hep 3B cells; [2]): 2.9 ± 4.1 % of control
